This is an account of results in ChEMBL document CHEMBL1129603, “Synthesis and biological activity of metabolites of the antidiabetic, antihyperglycemic agent pioglitazone” (1996).

The species named for this assay is Mus musculus. The experiment in a line: Compound was evaluated for Antihyperglycemic activity in KKAy mice, glucose level for the treated group (T) over the anti-hyperglycaemic activity. Type of assay: functional.

The compound `CCc1ccc(CCOc2ccc(CC3SC(=O)NC3=O)cc2)nc1` (stereo unspecified) [PIOGLITAZONE] came in with a T/C of 0.49. In the case of `O=C(O)Cc1ccc(CCOc2ccc(CC3SC(=O)NC3=O)cc2)nc1` (stereo unspecified) it was 0.91; in that of `CC(=O)c1ccc(CCOc2ccc(CC3SC(=O)NC3=O)cc2)nc1` (stereo unspecified), 0.74. As to `CCc1ccc(C(O)COc2ccc(CC3SC(=O)NC3=O)cc2)nc1` (stereo unspecified), the T/C stood at 0.78. In the case of `CC(O)c1ccc(CCOc2ccc(CC3SC(=O)NC3=O)cc2)nc1` (stereo unspecified) [LERIGLITAZONE], the T/C turned out to be 0.74. In the case of `CCc1ccc(C(=O)COc2ccc(CC3SC(=O)NC3=O)cc2)nc1` (stereo unspecified) [MITOGLITAZONE] it was 0.39.
